Data taken from publication PMC6272684, “Synthesis, Antiproliferative and Antifungal Activities of 1,2,3-Triazole-Substituted Carnosic Acid and Carnosol Derivatives” (Molecules, 2015).

Experiments:
C. neoformans ATCC 32264 = assay: Antifungal broth microdilution (CLSI M27-A3), growth inhibition; assay type: cell-based, Cryptococcus neoformans; details: for MIC50 (minimum concentration to inhibit 50% of fungal growth), C. neoformans: C. neoformans ATCC 32264
Description: (§1) The antifungal properties of compounds 1–24 against two clinical important fungal species, C. albicans ATCC 10231 and C. neoformans ATCC 32264 were investigated. Results were expressed as the percentages of inhibition of each fungus in the range 250–3.9 μg∙mL^−1 by using the standardized microbroth dilution method M-27A3 of Clinical and Laboratory Standards Institute which assures reliable and reproducible results.
(§2) For the antifungal evaluation, standardized strains from the American Type Culture Collection (ATCC), Rockville, MD, USA, were used. The microorganisms included yeasts (Candida albicans ATCC 10231 and Cryptococcus neoformans ATCC 32264). Strains were grown on Sabouraud-chloramphenicol agar slants for 48 h at 30 °C, maintained on slopes of Sabouraud-dextrose agar (SDA, Oxoid), and subcultured every 15 days to prevent pleomorphic transformations. Inocula of cell or spore suspensions were obtained according to reported procedures and adjusted to 1–5 × 10^3 cells/spores with colony forming units (CFU)/mL [29].
(§3) Broth microdilution techniques were performed in 96-well microplates according to the Clinical and Laboratory Standards Institute Reference Method for Broth Dilution Antifungal Susceptibility Testing of Yeasts, Approved Standard M27-A3 [29]. For the assay, compound test wells (CTWs) were prepared with stock solutions of each compound in DMSO (maximum concentration ≤1%), diluted with RPMI-1640, to final concentrations of 250–3.9 μg∙mL^−1. An inoculum suspension (100 μL) was added to each well (final volume in the well = 200 μL). A growth control well (GCW) (containing medium, inoculum, and the same amount of DMSO used in a CTW, but compound-free) and a sterility control well (SCW) (sample, medium, and sterile water instead of inoculum) were included for each fungus tested. Microtiter trays were incubated in a moist, dark chamber at 30 °C for 48 h for both yeasts. Microplates were read in a VERSA Max microplate reader (Molecular Devices, Sunnyvale, CA, USA). Amphotericin B (Sigma-Aldrich) was used as positive control. Tests were performed in triplicate. Reduction of growth for each compound concentration was calculated as follows: % of inhibition = 100 − (OD 405 CTW − OD 405 SCW)/(OD 405 GCW − OD 405 SCW). The means ± SEM were the results of triplicate tests. Three endpoints were defined from the assay explained above and the dose-response curves. Minimum Inhibitory concentration (MIC) resulting in total fungal growth inhibition was named MIC100 while MIC50 was defined as the minimum concentration that inhibits 50% of the fungal growth.

C. albicans ATCC 10231 = assay: as above; assay type: cell-based, Candida albicans; details: for MIC50 (minimum concentration to inhibit 50% of fungal growth), C. albicans: C. albicans ATCC 10231
Description: as §1, §2, §3

Row | Structure (SMILES) | Inhibition percentage against C. neoformans ATCC 32264 (C. neoformans ATCC 32264; 3.9 μg∙mL^−1, 48 h) [%] | Inhibition percentage against C. neoformans ATCC 32264 (C. neoformans ATCC 32264; 7.8 μg∙mL^−1, 48 h) [%] | Inhibition percentage against C. neoformans ATCC 32264 (C. neoformans ATCC 32264; 15.6 μg∙mL^−1, 48 h) [%] | Inhibition percentage against C. neoformans ATCC 32264 (C. neoformans ATCC 32264; 31.2 μg∙mL^−1, 48 h) [%] | Inhibition percentage against C. neoformans ATCC 32264 (C. neoformans ATCC 32264; 62.5 μg∙mL^−1, 48 h) [%] | Inhibition percentage against C. neoformans ATCC 32264 (C. neoformans ATCC 32264; 125 μg∙mL^−1, 48 h) [%] | Inhibition percentage against C. neoformans ATCC 32264 (C. neoformans ATCC 32264; 250 μg∙mL^−1, 48 h) [%] | MIC50 (minimum concentration to inhibit 50% of fungal growth), C. neoformans (C. neoformans ATCC 32264) [µg/mL] | Inhibition percentage against C. albicans ATCC 10231 (C. albicans ATCC 10231; 3.9 μg∙mL^−1, 48 h) [%] | Inhibition percentage against C. albicans ATCC 10231 (C. albicans ATCC 10231; 7.8 μg∙mL^−1, 48 h) [%] | Inhibition percentage against C. albicans ATCC 10231 (C. albicans ATCC 10231; 15.6 μg∙mL^−1, 48 h) [%] | Inhibition percentage against C. albicans ATCC 10231 (C. albicans ATCC 10231; 62.5 μg∙mL^−1, 48 h) [%] | Inhibition percentage against C. albicans ATCC 10231 (C. albicans ATCC 10231; 125 μg∙mL^−1, 48 h) [%] | Inhibition percentage against C. albicans ATCC 10231 (C. albicans ATCC 10231; 250 μg∙mL^−1, 48 h) [%] | Inhibition percentage against C. albicans ATCC 10231 (C. albicans ATCC 10231; 31. μg∙mL^−1, 48 h) [%] | MIC50 (minimum concentration to inhibit 50% of fungal growth), C. albicans (C. albicans ATCC 10231) [µg/mL] | Antifungal activity against C. albicans (in words) (C. albicans ATCC 10231; at the assayed concentrations (250–3.9 μg∙mL^−1))
1 | COC(=O)C12CCCC(C)(C)C1CCc1cc(C(C)C)c(OC(=O)CCc3cn(CSc4ccccc4)nn3)c(OC(=O)CCc3cn(CSc4ccccc4)nn3)c12 (stereo not drawn) [Compound 9, Methyl(11,12-O-(3-(((1-phenylthio)methyl)-1H-1,2,3-triazol-4-yl)-propanoyloxy)-abieta-8,11,13-triene)-20-oate] | 0.0 | 5.1 ± 0.7 | 7.3 ± 0.4 | 13.7 ± 1.5 | 23.4 ± 1.3 | 53.6 ± 2.6 | 62.4 ± 3.8 | 125 | 0.0 | 0.0 | 3.5 ± 0.3 | 9.4 ± 0.7 | 19.2 ± 0.1 | 15.9 ± 1.2 | 4.7 ± 0.1 | >250 | –
2 | COC(=O)C12CCCC(C)(C)C1CCc1cc(C(C)C)c(OC(=O)CCc3cn(Cc4ccc(Br)cc4)nn3)c(OC(=O)CCc3cn(Cc4ccc(Br)cc4)nn3)c12 (stereo not drawn) [Compound 13, Methyl(11,12-O-(3-(1-(4-bromobenzyl)-1H-1,2,3-triazol-4-yl)-propanoyloxy)-abieta-8,11,13-triene)-20-oate] | 5.8 ± 0.6 | 10.0 ± 1.0 | 13.3 ± 0.3 | 13.7 ± 0.6 | 16.3 ± 1.1 | 16.8 ± 1.8 | 25.7 ± 0.5 | >250 | 0.0 | 0.6 ± 0.1 | 1.3 ± 0.3 | 6.7 ± 0.1 | 10.7 ± 0.3 | 17.6 ± 0.2 | 4.3 ± 0.4 | >250 | –
3 | CC(C)c1cc2c(c(OC(=O)CCc3cn(CSc4ccccc4)nn3)c1OC(=O)CCc1cn(CSc3ccccc3)nn1)C13CCCC(C)(C)C1CC2OC3=O (stereo not drawn) [Compound 17, (7β)-11,12-O-(3-(((1-phenylthio)methyl)-1H-1,2,3-triazol-4-yl)-propanoyloxy)-7,20-epoxyabieta-8,11,13-trien-20-one] | 0.0 | 0.0 | 0.0 | 0.0 | 0.0 | 11.4 ± 1.2 | 41.1 ± 1.3 | >250 | 0.0 | 2.8 ± 0.6 | 4.8 ± 1.0 | 11.5 ± 0.7 | 21.2 ± 0.2 | 42.3 ± 0.7 | 6.7 ± 1.1 | >250 | weak effect
4 | CC(C)c1cc2c(c(OC(=O)CCCc3cn(CSc4ccccc4)nn3)c1OC(=O)CCCc1cn(CSc3ccccc3)nn1)C13CCCC(C)(C)C1CC2OC3=O (stereo not drawn) [Compound 18, (7β)-11,12-O-(4-(((1-phenylthio)methyl)-1H-1,2,3-triazol-4-yl)-butanoyloxy)-7,20-epoxyabieta-8,11,13-trien-20-one] | 0.0 | 0.0 | 0.0 | 0.0 | 0.0 | 11.8 ± 0.6 | 44.3 ± 1.9 | >250 | 1.0 ± 0.1 | 2.5 ± 0.2 | 2.8 ± 1.0 | 18.3 ± 0.1 | 35.4 ± 2.1 | 57.9 ± 1.0 | 11.5 ± 1.8 | 250 | –
5 | CC(C)c1cc2c(c(OC(=O)CCCc3cn(Cc4ccccc4)nn3)c1OC(=O)CCCc1cn(Cc3ccccc3)nn1)C13CCCC(C)(C)C1CC2OC3=O (stereo not drawn) [Compound 20, (7β)-11,12-O-(4-(1-benzyl-1H-1,2,3-triazol-4-yl)-butanoyloxy)-7,20-epoxyabieta-8,11,13-trien-20-one] | 0.0 | 0.0 | 0.0 | 2.7 ± 2.7 | 10.4 ± 0.2 | 14.5 ± 1.2 | 22.0 ± 1.0 | >250 | 0.7 ± 0.1 | 1.6 ± 0.2 | 3.0 ± 0.4 | 10.9 ± 1.6 | 21.4 ± 3.4 | 34.5 ± 0.5 | 4.3 ± 0.4 | >250 | –
